What follows are compounds tested against Protein farnesyltransferase (Homo sapiens, UniProt P49354+P49356) (assay: Inhibition of farnesyl transferase).
Format: protein-complex assay
Work on `CC1(c2cccc3ccccc23)C(=O)N(CCCn2ccnc2)C(=O)N1Cc1ccc(S(C)(=O)=O)c(C#N)c1` (stereo not drawn) yielded an IC50 of 0.73 µM.
In the case of `CSc1ccc(CN2C(=O)N(CCCn3ccnc3)C(=O)C2(C)c2cccc3ccccc23)cc1` (stereo not drawn), the IC50 is reported as 0.7 µM.
Compound `COC(=O)[C@H](CCSC)NC(=O)CN1C(=O)N(CCCc2cnc[nH]2)C(=O)C1(C)c1cccc2ccccc12` (stereo partly drawn) has an IC50 of 500 µM.
In the case of `CC1(c2cccc3ccccc23)C(=O)N(CCCn2ccnc2)C(=O)N1Cc1cccc(C#N)c1` (stereo not drawn), the IC50 is reported as 0.09 µM.
`CC1(c2cccc3ccccc23)C(=O)N(CCCn2ccnc2)C(=O)N1Cc1cccc(CNS(C)(=O)=O)c1` (stereo not drawn) was tested, and the IC50 was 1.2 µM.
`CC1(c2cccc3ccccc23)C(=O)N(CCCn2ccnc2)C(=O)N1Cc1ccc(S(C)(=O)=O)cc1` (stereo not drawn) showed an IC50 of 1.1 µM.
In the case of `CSCC[C@H](NC(=O)CN1C(=O)N(CCCc2c[nH]cn2)C(=O)C1(C)c1cccc2ccccc12)C(=O)O` (stereo partly drawn), the IC50 is reported as 0.8 µM.
`CSCC[C@H](NC(=O)CN1C(=O)N(Cc2c[nH]cn2)C(=O)C1(C)c1cccc2ccccc12)C(=O)O` (stereo partly drawn) gave an IC50 of 61 µM.
For `CC1(c2cccc3ccccc23)C(=O)N(CCCn2ccnc2)C(=O)N1Cc1ccc(C(=O)O)cc1` (stereo not drawn), the IC50 was 0.2 µM.
With `CC1(c2cccc3ccccc23)C(=O)N(CCCn2ccnc2)C(=O)N1Cc1cccc(Cl)c1` (stereo not drawn) the IC50 was 0.24 µM.
For `CC1(c2cccc3ccccc23)C(=O)N(CCCn2ccnc2)C(=O)N1Cc1cccc(Br)c1` (stereo not drawn), the IC50 was 0.37 µM.
`CC1(c2cccc3ccccc23)NC(=O)N(CCCn2ccnc2)C1=O` (stereo not drawn) was tested, and the IC50 was 7.7 µM.
For `CC1(c2cccc3ccccc23)C(=O)N(CCCn2ccnc2)C(=O)N1Cc1cccc(C(F)(F)F)c1` (stereo not drawn), the IC50 was 1.7 µM.
Work on `CC1(c2cccc3ccccc23)C(=O)N(CCCn2ccnc2)C(=O)N1Cc1ccccc1C#N` (stereo not drawn) yielded an IC50 of 1.3 µM.
`CC1(c2cccc3ccccc23)C(=O)N(CCCn2ccnc2)C(=O)N1Cc1ccccc1CNS(C)(=O)=O` (stereo not drawn) showed an IC50 of 0.5 µM.
`COC(=O)[C@H](CCSC)NC(=O)CN1C(=O)N(CCc2cnc[nH]2)C(=O)C1(C)c1cccc2ccccc12` (stereo partly drawn) showed an IC50 of 2500 µM.
Compound `CC1(c2cccc3ccccc23)NC(=O)N(CCCc2cnc[nH]2)C1=O` (stereo not drawn) has an IC50 of 40 µM.
`CSCC[C@H](NC(=O)CN1C(=O)N(CCc2cnc[nH]2)C(=O)C1(C)c1cccc2ccccc12)C(=O)O` (stereo partly drawn) was tested, and the IC50 was 4.8 µM.
In the case of `CSCc1ccc(CN2C(=O)N(CCCn3ccnc3)C(=O)C2(C)c2cccc3ccccc23)cc1` (stereo not drawn), the IC50 is reported as 0.21 µM.
`CCOC(=O)CN1C(=O)N(CCCc2cncn2C)C(=O)C1(C)c1cccc2ccccc12` (stereo not drawn) was tested, and the IC50 was 2.8 µM.
`CC1(c2cccc3ccccc23)C(=O)N(CCCn2ccnc2)C(=O)N1Cc1ccc(Oc2ccccc2)cc1` (stereo not drawn) was tested, and the IC50 was 0.75 µM.
Compound `CCOC(=O)CN1C(=O)N(CCCn2ccnc2)C(=O)C1(C)c1cccc2ccccc12` (stereo not drawn) has an IC50 of 1 µM.
`CC1(c2cccc3ccccc23)C(=O)N(CCCn2ccnc2)C(=O)N1Cc1ccc(C#N)cc1` (stereo not drawn) gave an IC50 of 0.9 µM.
Work on `COC(=O)[C@H](CCSC)NC(=O)CN1C(=O)N(Cc2cnc[nH]2)C(=O)C1(C)c1cccc2ccccc12` (stereo partly drawn) yielded an IC50 of 19000 µM.
`CC1(c2cccc3ccccc23)C(=O)N(CCCn2ccnc2)C(=O)N1Cc1cccc(Oc2ccccc2)c1` (stereo not drawn) showed an IC50 of 0.72 µM.
For `CC1(c2cccc3ccccc23)C(=O)N(CCCn2ccnc2)C(=O)N1Cc1ccc(Br)cc1` (stereo not drawn), the IC50 was 0.16 µM.
Compound `CC1(c2cccc3ccccc23)C(=O)N(CCCn2ccnc2)C(=O)N1Cc1ccc(CNS(C)(=O)=O)cc1` (stereo not drawn) has an IC50 of 0.35 µM.
For `CSc1ccc(CN2C(=O)N(CCCn3ccnc3)C(=O)C2(C)c2cccc3ccccc23)cc1C#N` (stereo not drawn), the IC50 was 0.08 µM.
